Results taken from patent US20100323950A1, “USE OF BETA-MELANOTROPIN AS A THERAPEUTIC AGENT, EG FOR THE TREATMENT OF AIDS OR ALZHEIMER” (priority 2007, published 2010).

Columns and labels:
[1] = test system: Streptococcus pneumoniae; settings: 5 micrograms per ml
[2] = in vitro; settings: human, MRC-5 cells (human embryonal lung fibroblasts)
[3] = test system: MRSA; settings: 5 micrograms per ml
[4] = test system: Pseudomonas aeruginosa; settings: 5 micrograms per ml
[5] = Cytotoxicity (dye uptake cell viability) in HepG2-2.2.15 cells; settings: human

Structure (SMILES): CSCC[C@H](NC(=O)[C@H](CCCNC(=N)N)NC(=O)[C@H](Cc1ccc(O)cc1)NC(=O)[C@@H]1CCCN1C(=O)CNC(=O)[C@H](CCC(=O)O)NC(=O)[C@H](CC(=O)O)NC(=O)[C@H](CCCCN)NC(=O)[C@H](CCCCN)NC(=O)[C@H](CCC(=O)O)NC(=O)[C@H](C)N)C(=O)N[C@@H](CCC(=O)O)C(=O)N[C@@H](Cc1c[nH]cn1)C(=O)N[C@@H](Cc1ccccc1)C(=O)N[C@@H](CCCNC(=N)N)C(=O)N[C@@H](Cc1c[nH]c2ccccc12)C(=O)NCC(=O)N[C@@H](CO)C(=O)N1CCC[C@H]1C(=O)N1CCC[C@H]1C(=O)N[C@@H](CCCCN)C(=O)N[C@@H](CC(=O)O)C(=O)O [Beta MSH]
- % inhibition [1]: 0.0%
- viability at 144 h [2]: 100%
- % inhibition [3]: 0.0%
- % inhibition [4]: 0.0%
- viability at 144 h, 10 micrograms per ml [5]: 100%
